From patent US9676714B2, “Sulfonylindole derivatives and method for preparing the same” (Daewoong Pharmaceutical Co., Ltd., priority 2013, dated 2017)
Counter-ions that a name gives are not always drawn.

These compounds were tested against T1, proton pump (H+/K+-ATPase) (Sus scrofa, UniProt P19156) (assay: Measurement of inhibitory effects on proton pump (H+/K+-ATPase) activities). Details: hog gastric vesicles, K+-specific H+/K+-ATPase activity, Tris-HCl buffer pH 7.4, 37° C. for 40 minutes, malachite green Pi readout.
T1 construct: Gastric vesicles were prepared from hog stomach via centrifugal separation; from tissue; host or cells: hog stomach (gastric vesicles, method of Rabon et al. 1988)
T1 sequence (P19156 whole entry): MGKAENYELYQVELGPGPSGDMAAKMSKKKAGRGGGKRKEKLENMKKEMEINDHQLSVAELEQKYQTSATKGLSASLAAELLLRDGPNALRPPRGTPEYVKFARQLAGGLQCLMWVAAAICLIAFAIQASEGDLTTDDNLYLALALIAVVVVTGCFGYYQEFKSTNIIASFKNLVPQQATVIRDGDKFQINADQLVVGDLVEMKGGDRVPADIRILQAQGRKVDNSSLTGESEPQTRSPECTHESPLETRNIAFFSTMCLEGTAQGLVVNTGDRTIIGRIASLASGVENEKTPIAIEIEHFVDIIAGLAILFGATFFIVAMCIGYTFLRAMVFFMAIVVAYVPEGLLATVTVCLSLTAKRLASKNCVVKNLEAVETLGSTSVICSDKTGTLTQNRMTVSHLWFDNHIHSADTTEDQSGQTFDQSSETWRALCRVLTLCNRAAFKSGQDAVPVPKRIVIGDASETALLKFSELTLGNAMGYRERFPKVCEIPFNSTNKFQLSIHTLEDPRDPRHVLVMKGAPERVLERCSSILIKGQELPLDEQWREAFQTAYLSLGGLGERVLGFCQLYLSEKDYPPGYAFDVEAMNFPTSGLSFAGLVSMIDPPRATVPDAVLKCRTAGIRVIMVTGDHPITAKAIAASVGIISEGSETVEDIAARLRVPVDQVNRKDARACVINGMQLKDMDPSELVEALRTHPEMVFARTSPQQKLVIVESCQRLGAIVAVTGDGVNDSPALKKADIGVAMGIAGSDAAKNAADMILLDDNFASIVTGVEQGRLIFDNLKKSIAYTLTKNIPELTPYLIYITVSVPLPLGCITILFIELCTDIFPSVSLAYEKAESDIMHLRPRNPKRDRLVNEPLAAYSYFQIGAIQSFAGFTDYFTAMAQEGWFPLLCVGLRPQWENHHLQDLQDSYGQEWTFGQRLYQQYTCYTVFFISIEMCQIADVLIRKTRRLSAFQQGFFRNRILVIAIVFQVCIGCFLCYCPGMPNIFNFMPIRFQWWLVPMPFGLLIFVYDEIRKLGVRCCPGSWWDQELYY
T1 sequence (P18434 whole entry partner): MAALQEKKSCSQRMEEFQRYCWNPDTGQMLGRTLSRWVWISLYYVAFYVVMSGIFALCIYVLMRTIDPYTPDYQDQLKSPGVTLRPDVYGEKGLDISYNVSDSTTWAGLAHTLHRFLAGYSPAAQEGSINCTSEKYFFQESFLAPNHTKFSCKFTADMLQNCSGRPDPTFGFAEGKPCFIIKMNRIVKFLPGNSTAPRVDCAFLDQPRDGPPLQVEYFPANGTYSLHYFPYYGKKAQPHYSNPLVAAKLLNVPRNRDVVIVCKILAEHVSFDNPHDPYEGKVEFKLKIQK
Format: biochemical
Procedure: 1) Preparation of Gastric Vesicles
Gastric vesicles were prepared from hog stomach via centrifugal separation (Edd C. Rabon et al., Preparation of Gastric H^+,K^+-ATPase, Methods in enzymology, vol. 157 Academic Press Inc., (1988), pp. 649-654). The protein contents of the thus prepared gastric vesicles were quantitated by Bicinchoninic Acid (BCA) kit.
2) Measurement of Inhibitory Effects on Proton Pump (H^+/K^+-ATPase) Activities
The inhibitory effects of the compounds of the present invention against proton pump activities were measured using a 96-well plate. In this assay, the K^+-specific H^+/K^+-ATPase activities were calculated based on the difference between the H^+/K^+-ATPase activity in the presence of K^+ and that in the absence of K. In the 96-well plate, 0.5% dimethyl sulfoxide (DMSO) in buffer was added to the negative and positive control groups, and the diluted compounds of the present invention were added to the test groups. All assays were performed in a reaction volume of 100 μl at room temperature. The reaction buffer solution (60 mmol/l Tris-HCl buffer, pH 7.4) including the hog gastric vesicles was added with DMSO and the compounds at various concentrations, and then further added with 10 μl of 10 mmol/1 adenosine triphosphate Tris buffer solution (60 mmol/l Tris-HCl buffer, pH 7.4) to initiate an enzyme reaction. […] The amount of monophosphate (Pi) in the reaction was measured at 570 nm using a micro plate reader (FLUOstar Omega, BMG LABTECH). The inhibition rates (%) were determined from the activity values of control groups and those of test compounds at various concentrations, and the […] of the test compounds were calculated based on the respective inhibition value (%) using the Logistic 4-parameter function of Sigmaplot 8.0 program.

SMILES	IC50
CCOc1c(F)ccc(Nc2ccc3c(CNC)cn(S(=O)(=O)c4cccnc4)c3c2)c1F [Example 69, N-(3-ethoxy-2,4-difluorophenyl)-3-((methylamino)methyl)-1-(pyridin-3-ylsulfonyl)-1H-indol-6-amine hydrochloride]	2350 nM
CNCc1cn(S(=O)(=O)c2cccnc2)c2cc(Nc3ccc(OC)c(F)c3F)ccc12 [Example 70, N-(2,3-difluoro-4-methoxyphenyl)-3-((methylamino)methyl)-1-(pyridin-3-ylsulfonyl)-1H-indol-6-amine hydrochloride]	300 nM
CCOc1ccc(Nc2ccc3c(CNC)cn(S(=O)(=O)c4cccnc4)c3c2)c(F)c1F [Example 71, N-(4-ethoxy-2,3-difluorophenyl)-3-((methylamino)methyl)-1-(pyridin-3-ylsulfonyl)-1H-indol-6-amine hydrochloride]	430 nM
CNCc1cn(S(=O)(=O)c2cccnc2)c2cc(Nc3cc(C)c(Cl)cc3C)ccc12 [Example 75, N-(4-chloro-2,5-dimethylphenyl)-3-((methylamino)methyl)-1-(pyridin-3-ylsulfonyl)-1H-indol-6-amine hydrochloride]	290 nM
CNCc1cn(S(=O)(=O)c2cccnc2)c2cc(Nc3cc(Cl)c(Cl)cc3Cl)ccc12 [Example 76, 3-((methylamino)methyl)-1-(pyridin-3-ylsulfonyl)-N-(2,4,5-trichlorophenyl)-1H-indol-6-amine hydrochloride]	350 nM
CNCc1cn(S(=O)(=O)c2cccnc2)c2cc(Nc3cc(OC)c(Cl)cc3Cl)ccc12 [Example 77, N-(2,4-dichloro-5-methoxyphenyl)-3-((methylamino)methyl)-1-(pyridin-3-ylsulfonyl)-1H-indol-6-amine hydrochloride]	350 nM
CNCc1cn(S(=O)(=O)c2cccnc2)c2cc(Nc3cc(F)c(C(F)(F)F)cc3F)ccc12 [Example 78, N-(2,5-difluoro-4-(trifluoromethyl)phenyl)-3-((methylamino)methyl)-1-(pyridin-3-ylsulfonyl)-1H-indol-6-amine hydrochloride]	2260 nM
CNCc1cn(S(=O)(=O)c2cccnc2)c2cc(Nc3c(C)cc(C)cc3C)ccc12 [Example 80, N-mesityl-3-((methylamino)methyl)-1-(pyridin-3-ylsulfonyl)-1H-indol-6-amine hydrochloride]	170 nM
CNCc1cn(S(=O)(=O)c2cccnc2)c2cc(Nc3c(C)cc(Cl)cc3C)ccc12 [Example 85, N-(4-chloro-2,6-dimethylphenyl)-3-((methylamino)methyl)-1-(pyridin-3-ylsulfonyl)-1H-indol-6-amine hydrochloride]	370 nM
CNCc1cn(S(=O)(=O)c2cccnc2)c2cc(Nc3c(Cl)cc(Cl)cc3Cl)ccc12 [Example 87, 3-((methylamino)methyl)-1-(pyridin-3-ylsulfonyl)-N-(2,4,6-trichlorophenyl)-1H-indol-6-amine hydrochloride]	400 nM
CNCc1cn(S(=O)(=O)c2cccnc2)c2cc(Nc3c(C)cc(Cl)cc3[N+](=O)[O-])ccc12 [Example 94, N-(4-chloro-2-methyl-6-nitrophenyl)-3-((methylamino)methyl)-1-(pyridin-3-ylsulfonyl)-1H-indol-6-amine hydrochloride]	780 nM
CNCc1cn(S(=O)(=O)c2cccnc2)c2cc(Nc3c(F)c(F)cc(F)c3F)ccc12 [Example 95, 3-((methylamino)methyl)-1-(pyridin-3-ylsulfonyl)-N-(2,3,5,6-tetrafluorophenyl)-1H-indol-6-amine hydrochloride]	480 nM
CNCc1cn(S(=O)(=O)c2cccnc2)c2cc(Nc3c(F)c(F)c(C(F)(F)F)c(F)c3F)ccc12 [Example 96, 3-((methylamino)methyl)-1-(pyridin-3-ylsulfonyl)-N-(2,3,5,6-tetrafluoro-4-(trifluoromethyl)phenyl)-1H-indol-6-amine hydrochloride]	1730 nM
CNCc1cn(S(=O)(=O)c2cccnc2)c2cc(Nc3ccc4c(c3)OCCO4)ccc12 [Example 97, N-(2,3-dihydrobenzo[b][1,4]dioxin-6-yl)-3-((methylamino)methyl)-1-(pyridin-3-ylsulfonyl)-1H-indol-6-amine hydrochloride]	670 nM
CNCc1cn(S(=O)(=O)c2cccnc2)c2cc(Nc3ncccc3C)ccc12 [Example 98, 3-((methylamino)methyl)-N-(3-methylpyridin-2-yl)-1-(pyridin-3-ylsulfonyl)-1H-indol-6-amine hydrochloride]	1920 nM
CNCc1cn(S(=O)(=O)c2cccnc2)c2cc(Nc3ncccc3F)ccc12 [Example 99, N-(3-fluoropyridin-2-yl)-3-((methylamino)methyl)-1-(pyridin-3-ylsulfonyl)-1H-indol-6-amine hydrochloride]	1380 nM

Results, then the compound that gave them:

IC50	SMILES
160 nM	CNCc1cn(S(=O)(=O)c2cccnc2)c2cc(Nc3cc(F)c(F)cc3C)ccc12 [Example 73, N-(4,5-difluoro-2-methylphenyl)-3-((methylamino)methyl)-1-(pyridin-3-ylsulfonyl)-1H-indol-6-amine hydrochloride]
450 nM	CNCc1cn(S(=O)(=O)c2cccnc2)c2cc(Nc3cc(F)c(F)cc3F)ccc12 [Example 74, 3-((methylamino)methyl)-1-(pyridin-3-ylsulfonyl)-N-(2,4,5-trifluorophenyl)-1H-indol-6-amine hydrochloride]
1380 nM	CNCc1cn(S(=O)(=O)c2cccnc2)c2cc(Nc3cc(F)c(Br)cc3F)ccc12 [Example 79, N-(4-bromo-2,5-difluorophenyl)-3-((methylamino)methyl)-1-(pyridin-3-ylsulfonyl)-1H-indol-6-amine hydrochloride]
310 nM	CNCc1cn(S(=O)(=O)c2cccnc2)c2cc(Nc3c(C)cc(F)cc3C)ccc12 [Example 81, N-(4-fluoro-2,6-dimethylphenyl)-3-((methylamino)methyl)-1-(pyridin-3-ylsulfonyl)-1H-indol-6-amine hydrochloride]
450 nM	CNCc1cn(S(=O)(=O)c2cccnc2)c2cc(Nc3c(F)cc(F)cc3F)ccc12 [Example 82, 3-((methylamino)methyl)-1-(pyridin-3-ylsulfonyl)-N-(2,4,6-trifluorophenyl)-1H-indol-6-amine hydrochloride]
1030 nM	CNCc1cn(S(=O)(=O)c2cccnc2)c2cc(Nc3c(F)cc(F)cc3Cl)ccc12 [Example 83, N-(2-chloro-4,6-difluorophenyl)-3-((methylamino)methyl)-1-(pyridin-3-ylsulfonyl)-1H-indol-6-amine hydrochloride]
530 nM	CNCc1cn(S(=O)(=O)c2cccnc2)c2cc(Nc3c(Cl)cc(F)cc3Cl)ccc12 [Example 84, N-(2,6-dichloro-4-fluorophenyl)-3-((methylamino)methyl)-1-(pyridin-3-ylsulfonyl)-1H-indol-6-amine hydrochloride]
650 nM	CNCc1cn(S(=O)(=O)c2cccnc2)c2cc(Nc3c(F)cc(Cl)cc3F)ccc12 [Example 86, N-(4-chloro-2,6-difluorophenyl)-3-((methylamino)methyl)-1-(pyridin-3-ylsulfonyl)-1H-indol-6-amine hydrochloride]
430 nM	CNCc1cn(S(=O)(=O)c2cccnc2)c2cc(Nc3c(F)cc(OC)cc3F)ccc12 [Example 88, N-(2,6-difluoro-4-methoxyphenyl)-3-((methylamino)methyl)-1-(pyridin-3-ylsulfonyl)-1H-indol-6-amine hydrochloride]
870 nM	CCOc1cc(F)c(Nc2ccc3c(CNC)cn(S(=O)(=O)c4cccnc4)c3c2)c(F)c1 [Example 89, N-(4-ethoxy-2,6-difluorophenyl)-3-((methylamino)methyl)-1-(pyridin-3-ylsulfonyl)-1H-indol-6-amine hydrochloride]
710 nM	CNCc1cn(S(=O)(=O)c2cccnc2)c2cc(Nc3c(C)cc(Br)cc3C)ccc12 [Example 90, N-(4-bromo-2,6-dimethylphenyl)-3-((methylamino)methyl)-1-(pyridin-3-ylsulfonyl)-1H-indol-6-amine hydrochloride]
870 nM	CNCc1cn(S(=O)(=O)c2cccnc2)c2cc(Nc3c(F)cc(F)cc3Br)ccc12 [Example 91, N-(2-bromo-4,6-difluorophenyl)-3-((methylamino)methyl)-1-(pyridin-3-ylsulfonyl)-1H-indol-6-amine hydrochloride]
1510 nM	CNCc1cn(S(=O)(=O)c2cccnc2)c2cc(Nc3c(F)cc(Br)cc3F)ccc12 [Example 92, N-(4-bromo-2,6-difluorophenyl)-3-((methylamino)methyl)-1-(pyridin-3-ylsulfonyl)-1H-indol-6-amine hydrochloride]
2220 nM	CNCc1cn(S(=O)(=O)c2cccnc2)c2cc(Nc3c(F)cc(Br)cc3Br)ccc12 [Example 93, N-(2,4-dibromo-6-fluorophenyl)-3-((methylamino)methyl)-1-(pyridin-3-ylsulfonyl)-1H-indol-6-amine hydrochloride]
